Results as given in ChEMBL document CHEMBL1132085, “Analogues of 4,5-bis(3,5-dichlorophenyl)-2-trifluoromethyl-1H-imidazole as potential antibacterial agents” (1999).
≈ marks a conversion by molar mass, not a printed value.

Tests used:
Assay type in all cases: functional
Bacillus subtilis = test: Antibacterial activity against Bacillus subtilis (Bs)
Escherichia coli [1] = test: Antibacterial activity against Escherichia coli (Ec)
Escherichia coli [2] = test: Antibacterial activity against Escherichia coli +polymyxin (Ec+)
Staphylococcus aureus = test: Antibacterial activity against methicillin resistant Staphylococcus aureus (MRSA)

| SMILES | MIC (Bacillus subtilis) [µg/mL] | MIC (Escherichia coli [1]) [µg/mL] | MIC (Escherichia coli [2]) [µg/mL] | MIC (Staphylococcus aureus) [µg/mL] |
| --- | --- | --- | --- | --- |
| FC(F)(F)c1nc(-c2cc(Cl)cc(Cl)c2)c(-c2cc(Cl)cc(Cl)c2)[nH]1 | 4 (≈ 9.39 µM) | > 32 | 16 (≈ 37.6 µM) | 0.25 (≈ 0.587 µM) |
| CSc1nc(-c2cc(Cl)cc(Cl)c2)c(-c2cc(Cl)cc(Cl)c2)[nH]1 | > 32 | > 32 | > 32 | > 32 |
| Clc1cc(Cl)cc(-c2nc[nH]c2-c2cc(Cl)cc(Cl)c2)c1 | 4 (≈ 11.2 µM) | > 32 | 8 (≈ 22.3 µM) | > 32 |
| CCNC(=O)c1nc(-c2cc(Cl)cc(Cl)c2)c(-c2cc(Cl)cc(Cl)c2)[nH]1 | > 32 | > 32 | > 32 | > 32 |
| COC(=O)c1nc(-c2cc(Cl)cc(Cl)c2)c(-c2cc(Cl)cc(Cl)c2)[nH]1 | > 32 | > 32 | > 32 | > 32 |
| Oc1nc(-c2cc(Cl)cc(Cl)c2)c(-c2cc(Cl)cc(Cl)c2)[nH]1 | 4 (≈ 10.7 µM) | > 32 | 8 (≈ 21.4 µM) | 8 (≈ 21.4 µM) |
| Cc1nc(-c2cc(Cl)cc(Cl)c2)c(-c2cc(Cl)cc(Cl)c2)[nH]1 | > 32 | > 32 | > 32 | > 32 |
| CS(=O)(=O)c1nc(-c2cc(Cl)cc(Cl)c2)c(-c2cc(Cl)cc(Cl)c2)[nH]1 | 4 (≈ 9.17 µM) | > 32 | 4 (≈ 9.17 µM) | 4 (≈ 9.17 µM) |
| Nc1nc(-c2cc(Cl)cc(Cl)c2)c(-c2cc(Cl)cc(Cl)c2)[nH]1 | 4 (≈ 10.7 µM) | > 32 | 8 (≈ 21.4 µM) | 2 (≈ 5.36 µM) |
| FC(F)(F)c1nc(-c2cc(Cl)cc(Cl)c2)c[nH]1 | 16 (≈ 56.9 µM) | > 32 | 8 (≈ 28.5 µM) | 16 (≈ 56.9 µM) |
| Cn1c(C(F)(F)F)nc(-c2cc(Cl)cc(Cl)c2)c1-c1cc(Cl)cc(Cl)c1 | 4 (≈ 9.09 µM) | > 32 | > 32 | 8 (≈ 18.2 µM) |
| O=Cc1nc(-c2cc(Cl)cc(Cl)c2)c(-c2cc(Cl)cc(Cl)c2)[nH]1 | 2 (≈ 5.18 µM) | > 32 | > 32 | 2 (≈ 5.18 µM) |
| Sc1nc(-c2cc(Cl)cc(Cl)c2)c(-c2cc(Cl)cc(Cl)c2)[nH]1 | > 32 | > 32 | > 32 | > 32 |
